Patent US8987264B2, “1,3,5-triazine derivatives of spiro bicyclic oxalamide-compounds for treatment of hepatitis C” (priority 2012, dated 2015)
Where two headings read alike, the source gives them in different places.

System: HCV pseudoparticles, genotype 1a (H77C) E1 and E2 envelope glycoproteins
Test: HCV pseudoparticle infection assay (luciferase reporter, Huh7 cells)
Format: cell-based
Conditions: Hepatitis C virus, Huh-7, 48 h, read-out: EC50 (nM) 1a (H77C), HCV pseudoparticles genotype 1a (H77C), Huh7 cells, luciferase 2 days after infection

Row | SMILES | EC50 (class symbol) [nM] | EC50 (numeric value) [nM]
1 | Cc1cc(NC(=O)C(=O)N2CCC3(CCN(C(=O)c4ccc(Nc5nc(NC6(c7ccc(Cl)cc7)CC6)nc(OCC(F)(F)F)n5)cc4)C3)C2)no1 (stereo not drawn) [Compound 1004] | 0.01 to 10 | –
2 | Cc1nnc(NC(=O)C(=O)N2CCC3(CCN(C(=O)c4ccc(Nc5nc(NC6(c7ccc(Cl)cc7)CC6)nc(OCC(F)(F)F)n5)cc4)C3)C2)s1 (stereo not drawn) [Compound 1015] | 0.01 to 10 | –
3 | O=C(C(=O)N1CCC2(CCN(C(=O)c3ccc(Nc4nc(NC5(c6ccc(Cl)cc6)CC5)nc(OCC(F)(F)F)n4)cc3)C2)C1)N1CCCCC1 (stereo not drawn) [Compound 1011] | 0.01 to 10 | –
4 | O=C(C(=O)N1CCC2(CCN(C(=O)c3ccc(Nc4nc(NC5(c6ccc(Cl)cc6)CC5)nc(OCC(F)(F)F)n4)cc3)C2)C1)N1CCc2ccccc2C1 (stereo not drawn) [Compound 1013] | 0.01 to 10 | 4.86
5 | O=C(Nc1nccs1)C(=O)N1CCC2(CCN(C(=O)c3ccc(Nc4nc(NC5(c6ccc(Cl)cc6)CC5)nc(OCC(F)(F)F)n4)cc3)C2)C1 (stereo not drawn) [Compound 1012] | 0.01 to 10 | –
6 | NC(=O)C(=O)N1CCC2(CCN(C(=O)c3ccc(Nc4nc(NC5(c6ccc(Cl)cc6)CC5)nc(OCC(F)(F)F)n4)cc3)C2)C1 (stereo not drawn) [Compound 1001] | 0.01 to 10 | 1.64
7 | CC(C)CNC(=O)C(=O)N1CCC2(CCN(C(=O)c3ccc(Nc4nc(NC5(c6ccc(Cl)cc6)CC5)nc(OCC(F)(F)F)n4)cc3)C2)C1 (stereo not drawn) [Compound 1014] | 0.01 to 10 | –
8 | O=C(Nc1ccc(F)cc1F)C(=O)N1CCC2(CCN(C(=O)c3ccc(Nc4nc(NC5(c6ccc(Cl)cc6)CC5)nc(OCC(F)(F)F)n4)cc3)C2)C1 (stereo not drawn) [Compound 1008] | 0.01 to 10 | –
9 | O=C(Nc1ccc(F)cc1)C(=O)N1CCC2(CCN(C(=O)c3ccc(Nc4nc(NC5(c6ccc(Cl)cc6)CC5)nc(OCC(F)(F)F)n4)cc3)C2)C1 (stereo not drawn) [Compound 1003] | 0.01 to 10 | –
10 | O=C(NCc1ccc(F)cc1)C(=O)N1CCC2(CCN(C(=O)c3ccc(Nc4nc(NC5(c6ccc(Cl)cc6)CC5)nc(OCC(F)(F)F)n4)cc3)C2)C1 (stereo not drawn) [Compound 1006] | 0.01 to 10 | –
11 | O=C(NC1CCCCC1)C(=O)N1CCC2(CCN(C(=O)c3ccc(Nc4nc(NC5(c6ccc(Cl)cc6)CC5)nc(OCC(F)(F)F)n4)cc3)C2)C1 (stereo not drawn) [Compound 1010] | 0.01 to 10 | –
12 | Cc1ccc(NC(=O)C(=O)N2CCC3(CCN(C(=O)c4ccc(Nc5nc(NC6(c7ccc(Cl)cc7)CC6)nc(OCC(F)(F)F)n5)cc4)C3)C2)cc1 (stereo not drawn) [Compound 1007] | 0.01 to 10 | 0.255
13 | O=C(Nc1cc(F)cc(F)c1)C(=O)N1CCC2(CCN(C(=O)c3ccc(Nc4nc(NC5(c6ccc(Cl)cc6)CC5)nc(OCC(F)(F)F)n4)cc3)C2)C1 (stereo not drawn) [Compound 1009] | 0.01 to 10 | –
14 | O=C(Nc1cccc(F)c1)C(=O)N1CCC2(CCN(C(=O)c3ccc(Nc4nc(NC5(c6ccc(Cl)cc6)CC5)nc(OCC(F)(F)F)n4)cc3)C2)C1 (stereo not drawn) [Compound 1002] | 0.01 to 10 | –
15 | O=C(Nc1ccccc1)C(=O)N1CCC2(CCN(C(=O)c3ccc(Nc4nc(NC5(c6ccc(Cl)cc6)CC5)nc(OCC(F)(F)F)n4)cc3)C2)C1 (stereo not drawn) [Compound 1005] | 0.01 to 10 | –
